Columns and labels:
Format in all cases: cell-based
Conditions in all cases: 1.5 μM each, 3 days
MMP-13 = MMP-13 mRNA expression relative to GAPDH, bovine primary chondrocytes in alginate beads (real-time PCR)
Description: (§1) The skin was removed from the foot. The articulation was opened transversally. Intra articular ligaments were transected. The opened articulation was washed with phosphate buffered saline. With a scalpel blade, full thickness slices of cartilage were dissected out and collected in DMEM high glucose with 10 mM hepes and 1% Penicillin-Streptomycin. Slices of cartilage were washed in DMEM high glucose with 10 mM hepes and 1% Penicillin-Streptomycin.
(§2) Cartilage was then digested successively by 0.5 mg/ml of hyluronidase during 30 minutes, 1.0 mg/ml of pronase E during 60 minutes and 1.0 mg/ml of collagenase overnight under slow agitation.
(§3) After the enzymatic incubation, the cell suspension was filtered through a 70 μm cell strainer to separate cell cluster and remove tissue debris. The cell suspension was centrifuged to pellet the cells. […]
(§4) Total RNA was isolated from pool of 40 beads and isolated using RNeasy kit from Qiagen. cDNA was obtained by reverse transcription of RNA with the Primescript 1st strand cDNA Synthesis kit from Takara. mRNA expression of ADAMTS-5, COX-2, MMP-13 and GAPDH were quantified in real-time PCR (SYBR Green)
(§5) Data were expressed as fold change in gene expression compared to negative control (cells cultured in complete medium).
(§6) Data were expressed as median±S.E.Median (2 experiments of 3 replicates each). […]

COX-2 = COX-2 mRNA expression relative to GAPDH, bovine primary chondrocytes in alginate beads (real-time PCR)
Description: as §1, §2, §3, §4, §5, §6

ADAMTS-5 = ADAMTS-5 mRNA expression relative to GAPDH, bovine primary chondrocytes in alginate beads (real-time PCR)
Description: as §1, §2, §3, §4, §5, §6

[1] = disease conditions (IL1a 10 ng/ml), vs IL1a
[2] = normal conditions (absence of IL1a), vs CTL-

Compound: O=c1c(O)c(-c2ccc(O)c(O)c2)oc2cc(O)cc(O)c12 [Quercetin, quercetin]
- MMP-13 mRNA expression relative to GAPDH (MMP-13; [1]): decrease expression of MMP-13
- MMP-13 mRNA expression relative to GAPDH (MMP-13; [2]): decrease expression of MMP-13
- COX-2 mRNA expression relative to GAPDH (COX-2; [1]): decrease expression of COX-2
- COX-2 mRNA expression relative to GAPDH (COX-2; [2]): reduce expression of COX-2
- ADAMTS-5 mRNA expression relative to GAPDH (ADAMTS-5; [1]): decrease expression of ADAMTS-5
- ADAMTS-5 mRNA expression relative to GAPDH (ADAMTS-5; [2]): decrease expression of ADAMTS-5

— patent US20250325576A1, “COMPOSITIONS FOR USE IN CARTILAGE BREAKDOWN” (Société des Produits Nestlé S.A., priority 2013, published 2025)
